Where two headings read alike, the source gives them in different places.
How the values were obtained:
[1] = Description: FIGS. 30-32 illustrate different transdermal membrane materials being tested with different solvents and solvent compositions. Solutions of water and different alcohols, including isopropanol, ethanol, and methanol were tested. The water to alcohol content was varied between 0/100 and 100/0 (by v/v) and tested with different membrane materials. For the tests 1.6 mL of solution was injected into the area between the transdermal membrane and the vapor permeable membrane. […] The membranes were observed approximately 90 seconds after providing the solvent solution to the space between the transdermal membrane and the vapor permeable membrane. […] Three different transdermal membrane materials were tested including Celgard® 2400 (FIG. 30), Celgard® 2500 (FIG. 31), and Celgard® 3501 (FIG. 32). Celgard® 2400 has an average pore diameter of about 0.041 μm and a porosity of 41%. Celgard® 2500 has an average pore diameter of about 0.064 μm and a porosity of 55%. Celgard® 3501 has an average pore diameter of about 0.064 μm and a porosity of 55%.
[2] = Wetting and permeation of solvent solutions across the transdermal membrane (FIG. 31); format: physicochemical; details: Celgard® 2500; 1.6 mL of solution injected between transdermal membrane and vapor permeable membrane; observed approximately 90 seconds after; v/v

| Compound | permeation of the solvent solution across the membrane [1] | permeation of the solvent solution across the membrane [2] |
| --- | --- | --- |
| CO [100% methanol, methanol] | Some permeation | Some permeation |
| O [100% water, water] | no permeation |  |
